#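 1) Cells in 96-well plates. 2) Compound, 48 h, 5 concentrations. 3) Linear interpolation between surrounding doses. 4) Unreached endpoint = highest concentration. GI50 = concentration required for 50% inhibition of growth.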 Activity calls are given as the source filed them. Cut-off read from the data, not from the text of the source: active = GI50 up to about 1.1 µM and inactive = higher.
# Columns and labels:
# Assay in all cases: NCI tumour cell line growth inhibition, 48 h
# OVCAR-3 = test system: OVCAR-3
# MOLT-4 = test system: MOLT-4
# SK-MEL-28 = test system: SK-MEL-28
# HCT-15 = test system: HCT-15
# UACC-62 = test system: UACC-62
# NCI-H460 = test system: NCI-H460
# HOP-92 = test system: HOP-92
# HOP-62 = test system: HOP-62
# SF-268 = test system: SF-268
# SK-MEL-5 = test system: SK-MEL-5
# K562 = test system: K562
# HT-29 = test system: HT-29
# NCI/ADR-RES = test system: NCI/ADR-RES
# PC-3 = test system: PC-3
# SR = test system: SR
# SNB-75 = test system: SNB-75
# CCRF-CEM = test system: CCRF-CEM
# M14 = test system: M14
# SK-OV-3 = test system: SK-OV-3
# OVCAR-4 = test system: OVCAR-4
Structure (SMILES),GI50 (OVCAR-3),GI50 (MOLT-4),GI50 (SK-MEL-28),GI50 (HCT-15),GI50 (UACC-62),GI50 (NCI-H460),GI50 (HOP-92),GI50 (HOP-62),GI50 (SF-268),GI50 (SK-MEL-5),GI50 (K562),GI50 (HT-29),GI50 (NCI/ADR-RES),GI50 (PC-3),GI50 (SR),GI50 (SNB-75),GI50 (CCRF-CEM),GI50 (M14),GI50 (SK-OV-3),GI50 (OVCAR-4)
CC(C)[Si]1(C(C)C)OCC2OC(n3cnc4c(N)ncnc43)C(N)C2O[Si](C(C)C)(C(C)C)O1 (configuration not stated),5.22 µM (inactive),2.08 µM (inactive),25.9 µM (inactive),6.9 µM,10.1 µM (inactive),4.07 µM (inactive),11.8 µM (inactive),17.2 µM (inactive),12 µM (inactive),2.06 µM (inactive),3.51 µM (inactive),4.6 µM (inactive),5.21 µM (inactive),3.16 µM (inactive),2.42 µM (inactive),4.69 µM (inactive),9.29 µM (inactive),8.45 µM (inactive),24 µM (inactive),8.09 µM (inactive)
C[C@]12CC(c3ccccc3O1)C(C(=O)Nc1nc(C34CC5CC(CC(C5)C3)C4)cs1)C(=O)N2 (some centres not stated),> 100 µM (inactive),> 100 µM (inactive),> 100 µM (inactive),> 100 µM,> 100 µM (inactive),> 100 µM (inactive),> 100 µM (inactive),> 100 µM (inactive),> 100 µM (inactive),> 100 µM (inactive),> 100 µM (inactive),> 100 µM (inactive),> 100 µM (inactive),> 100 µM (inactive),> 100 µM (inactive),> 100 µM (inactive),89.1 µM (inactive),> 100 µM (inactive),> 100 µM (inactive),> 100 µM (inactive)
C#CCn1ncc2c(SC)ncnc21,> 100 µM (inactive),> 100 µM (inactive),> 100 µM (inactive),> 100 µM,> 100 µM (inactive),> 100 µM (inactive),> 100 µM (inactive),> 100 µM (inactive),> 100 µM (inactive),> 100 µM (inactive),> 100 µM (inactive),> 100 µM (inactive),> 100 µM (inactive),> 100 µM (inactive),> 100 µM (inactive),33.8 µM (inactive),> 100 µM (inactive),> 100 µM (inactive),> 100 µM (inactive),> 100 µM (inactive)
CCOC(=O)c1sc2nc(SC)nc3c2c1N=CN3c1ccc(Br)cc1,24.8 µM (inactive),> 100 µM (inactive),> 100 µM (inactive),> 100 µM,> 100 µM (inactive),> 100 µM (inactive),> 100 µM (inactive),21.7 µM (inactive),–,> 100 µM (inactive),> 100 µM (inactive),> 100 µM (inactive),> 100 µM (inactive),> 100 µM (inactive),> 100 µM (inactive),38.2 µM (inactive),> 100 µM (inactive),> 100 µM (inactive),> 100 µM (inactive),> 100 µM (inactive)
COC(=O)c1ccc(C(=O)NC(Cc2ccc(Oc3cc(CC(NC(=O)c4ccccc4C(=O)OC)C(=O)OC)ccc3OC)cc2)C(=O)OC)cc1 (configuration not stated),> 100 µM (inactive),> 100 µM (inactive),> 100 µM (inactive),> 100 µM,–,> 100 µM (inactive),> 100 µM (inactive),36.3 µM (inactive),> 100 µM (inactive),–,> 100 µM (inactive),> 100 µM (inactive),> 100 µM (inactive),> 100 µM (inactive),> 100 µM (inactive),42.6 µM (inactive),> 100 µM (inactive),> 100 µM (inactive),67 µM (inactive),> 100 µM (inactive)
CC(NC1=CC(=O)c2ncccc2C1=O)C(O)c1ccccc1 (configuration not stated),2.45 µM (inactive),8.63 µM (inactive),3.32 µM (inactive),3.91 µM,2.02 µM (inactive),1.28 µM (inactive),13.2 µM (inactive),4.83 µM (inactive),12.2 µM (inactive),1.18 µM (inactive),2.04 µM (inactive),11.5 µM (inactive),8.15 µM (inactive),12.1 µM (inactive),8.36 µM (inactive),2.36 µM (inactive),5.75 µM (inactive),2.57 µM (inactive),16.1 µM (inactive),6.78 µM (inactive)
CS(=O)(=O)NC12CCC(c3ccccc31)c1ccccc12,> 100 µM (inactive),> 100 µM (inactive),> 100 µM (inactive),> 100 µM,> 100 µM (inactive),> 100 µM (inactive),> 100 µM (inactive),> 100 µM (inactive),> 100 µM (inactive),> 100 µM (inactive),> 100 µM (inactive),> 100 µM (inactive),> 100 µM (inactive),> 100 µM (inactive),> 100 µM (inactive),> 100 µM (inactive),> 100 µM (inactive),> 100 µM (inactive),> 100 µM (inactive),> 100 µM (inactive)
Cc1ccc(S(=O)(=O)OC2C3OC(C)(C)OC3OC2C(c2cc(O)c3c(c2O)C(=O)c2ccccc2C3=O)c2cc(O)c3c(c2O)C(=O)c2ccccc2C3=O)cc1 (configuration not stated),> 10 µM (inactive),> 10 µM (inactive),> 10 µM (inactive),> 10 µM,> 10 µM (inactive),> 10 µM (inactive),> 10 µM (inactive),> 10 µM (inactive),> 10 µM (inactive),> 10 µM (inactive),> 10 µM (inactive),> 10 µM (inactive),> 10 µM (inactive),> 10 µM (inactive),> 10 µM (inactive),> 10 µM (inactive),> 10 µM (inactive),> 10 µM (inactive),> 10 µM (inactive),> 10 µM (inactive)
Cc1c(C(C)C)cc(OCCO)cc1C(C)C,47.5 µM (inactive),34.1 µM (inactive),87.9 µM (inactive),35.6 µM,40.6 µM (inactive),36.4 µM (inactive),19.8 µM (inactive),75.7 µM (inactive),35.5 µM (inactive),17.6 µM (inactive),41.7 µM (inactive),26.6 µM (inactive),40 µM (inactive),30.8 µM (inactive),26.7 µM (inactive),23.9 µM (inactive),35.4 µM (inactive),38.8 µM (inactive),> 100 µM (inactive),33.5 µM (inactive)
N#CC(NNC(=O)Cc1ccccc1)c1c(O)ccc2ccccc12 (configuration not stated),2.99 µM (inactive),2.23 µM (inactive),7.66 µM (inactive),2.7 µM,3.08 µM (inactive),4.25 µM (inactive),5 µM (inactive),10.2 µM (inactive),3.45 µM (inactive),3.46 µM (inactive),3.69 µM (inactive),11.3 µM (inactive),2.92 µM (inactive),5.33 µM (inactive),3.44 µM (inactive),8.47 µM (inactive),1.2 µM (inactive),5.13 µM (inactive),4.84 µM (inactive),5.5 µM (inactive)
CC(=O)c1c(C)cc2cccc(OC3OC(CO)C(O)C(O)C3O)c2c1O.CC1OC(O)C(O)C(O)C1O (configuration not stated),> 100 µM (inactive),> 100 µM (inactive),> 100 µM (inactive),> 100 µM,> 100 µM (inactive),> 100 µM (inactive),> 100 µM (inactive),> 100 µM (inactive),> 100 µM (inactive),> 100 µM (inactive),> 100 µM (inactive),> 100 µM (inactive),> 100 µM (inactive),> 100 µM (inactive),> 100 µM (inactive),> 100 µM (inactive),> 100 µM (inactive),> 100 µM (inactive),> 100 µM (inactive),> 100 µM (inactive)
Cc1ccc2c(c1)C(C1Cc3c(C)cccc3C1=O)OC2=O (configuration not stated),> 100 µM (inactive),> 100 µM (inactive),> 100 µM (inactive),89.7 µM,> 100 µM (inactive),> 100 µM (inactive),> 100 µM (inactive),> 100 µM (inactive),> 100 µM (inactive),> 100 µM (inactive),> 100 µM (inactive),96.6 µM (inactive),40.4 µM (inactive),> 100 µM (inactive),91.6 µM (inactive),87.7 µM (inactive),> 100 µM (inactive),> 100 µM (inactive),> 100 µM (inactive),> 100 µM (inactive)
CCCn1c2ccccc2c2ccc3c(c21)C(=O)C=CC3=O,2.01 µM (inactive),0.904 µM (active),2.2 µM (inactive),2.24 µM,4.13 µM (inactive),> 10 µM (inactive),1.85 µM (inactive),> 10 µM (inactive),> 6.12 µM (inactive),> 7.91 µM (inactive),0.561 µM (active),> 10 µM (inactive),2.9 µM (inactive),3.54 µM (inactive),0.719 µM (active),> 10 µM (inactive),0.204 µM (active),2.18 µM (inactive),> 10 µM (inactive),1.88 µM (inactive)
Nc1nccc(Nc2ccc(S(N)(=O)=O)cc2)n1,> 100 µM (inactive),> 100 µM (inactive),> 100 µM (inactive),> 100 µM,> 100 µM (inactive),> 100 µM (inactive),> 100 µM (inactive),> 100 µM (inactive),> 100 µM (inactive),> 100 µM (inactive),> 100 µM (inactive),> 100 µM (inactive),> 100 µM (inactive),> 100 µM (inactive),> 100 µM (inactive),> 100 µM (inactive),> 100 µM (inactive),> 100 µM (inactive),> 100 µM (inactive),> 100 µM (inactive)

# Source: ChEMBL document CHEMBL1201862, “PubChem BioAssay data set” (2004)
